For assay [1], the target named is T1, Alpha-1B adrenergic receptor (Rattus norvegicus) (UniProt P15823).
T1 sequence (whole entry): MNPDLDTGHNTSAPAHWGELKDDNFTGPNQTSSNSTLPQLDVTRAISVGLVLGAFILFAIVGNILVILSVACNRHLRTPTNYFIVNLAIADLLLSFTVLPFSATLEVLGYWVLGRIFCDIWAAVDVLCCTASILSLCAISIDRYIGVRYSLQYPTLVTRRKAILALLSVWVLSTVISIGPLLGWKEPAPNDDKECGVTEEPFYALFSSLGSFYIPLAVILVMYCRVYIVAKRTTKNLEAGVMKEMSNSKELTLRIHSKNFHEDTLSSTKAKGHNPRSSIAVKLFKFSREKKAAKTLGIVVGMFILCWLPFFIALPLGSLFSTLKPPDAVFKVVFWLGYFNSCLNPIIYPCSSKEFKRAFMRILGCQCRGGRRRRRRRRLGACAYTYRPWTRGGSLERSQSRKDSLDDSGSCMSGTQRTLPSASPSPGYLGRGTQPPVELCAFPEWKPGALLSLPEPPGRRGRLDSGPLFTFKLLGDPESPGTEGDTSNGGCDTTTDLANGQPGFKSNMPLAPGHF
The assay can be described thus: Antagonist activity at adrenergic alpha 1B receptor in rat spleen. Format: functional, tissue-based.

The target of assay [2] is T2, Alpha-1A adrenergic receptor (Homo sapiens, UniProt P35348).
T2 sequence (P35348 whole entry): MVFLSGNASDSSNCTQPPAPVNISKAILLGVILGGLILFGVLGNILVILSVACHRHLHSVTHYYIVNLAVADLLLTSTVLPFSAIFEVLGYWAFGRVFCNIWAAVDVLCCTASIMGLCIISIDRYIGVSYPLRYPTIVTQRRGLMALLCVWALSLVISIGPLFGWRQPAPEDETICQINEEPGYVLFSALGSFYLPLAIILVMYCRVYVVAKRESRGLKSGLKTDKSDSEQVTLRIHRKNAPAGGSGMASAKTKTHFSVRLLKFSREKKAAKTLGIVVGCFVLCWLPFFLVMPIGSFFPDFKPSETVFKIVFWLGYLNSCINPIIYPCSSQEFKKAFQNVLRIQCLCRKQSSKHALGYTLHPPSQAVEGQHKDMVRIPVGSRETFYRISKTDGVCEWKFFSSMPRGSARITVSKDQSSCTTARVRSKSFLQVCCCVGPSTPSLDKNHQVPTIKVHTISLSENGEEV
The assay can be described thus: Displacement of [125I]BE2254 from human cloned adrenergic alpha 1A receptor expressed in HEK293 cells. It is filed as cell-based. Background: Loss of bound radioactivity is the signal in a displacement assay; it reports binding, not function.

Assay [3] addresses T3, Alpha-1D adrenergic receptor (Rattus norvegicus) (UniProt P23944).
T3 sequence (whole entry): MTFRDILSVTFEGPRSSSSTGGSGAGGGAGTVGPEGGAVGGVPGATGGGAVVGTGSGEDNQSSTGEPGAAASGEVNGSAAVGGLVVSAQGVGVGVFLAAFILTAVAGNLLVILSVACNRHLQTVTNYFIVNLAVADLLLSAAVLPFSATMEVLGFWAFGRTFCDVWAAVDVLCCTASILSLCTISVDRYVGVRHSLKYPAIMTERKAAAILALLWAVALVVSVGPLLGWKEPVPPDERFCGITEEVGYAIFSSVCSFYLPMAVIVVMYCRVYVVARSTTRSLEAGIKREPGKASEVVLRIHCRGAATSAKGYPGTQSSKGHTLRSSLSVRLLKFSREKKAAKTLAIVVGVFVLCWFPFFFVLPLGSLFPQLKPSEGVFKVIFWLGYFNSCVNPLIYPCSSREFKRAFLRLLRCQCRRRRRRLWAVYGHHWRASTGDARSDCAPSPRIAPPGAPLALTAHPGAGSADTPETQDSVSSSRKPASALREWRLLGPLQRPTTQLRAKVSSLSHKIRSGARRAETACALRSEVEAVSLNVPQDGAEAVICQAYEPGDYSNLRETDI
The assay can be described thus: Antagonist activity at adrenergic alpha 1D receptor in rat thoracic aorta. It is filed as functional, tissue-based.

Assay [4] deals with T4, Alpha-1D adrenergic receptor (Homo sapiens, UniProt P25100).
T4 sequence (P25100 whole entry): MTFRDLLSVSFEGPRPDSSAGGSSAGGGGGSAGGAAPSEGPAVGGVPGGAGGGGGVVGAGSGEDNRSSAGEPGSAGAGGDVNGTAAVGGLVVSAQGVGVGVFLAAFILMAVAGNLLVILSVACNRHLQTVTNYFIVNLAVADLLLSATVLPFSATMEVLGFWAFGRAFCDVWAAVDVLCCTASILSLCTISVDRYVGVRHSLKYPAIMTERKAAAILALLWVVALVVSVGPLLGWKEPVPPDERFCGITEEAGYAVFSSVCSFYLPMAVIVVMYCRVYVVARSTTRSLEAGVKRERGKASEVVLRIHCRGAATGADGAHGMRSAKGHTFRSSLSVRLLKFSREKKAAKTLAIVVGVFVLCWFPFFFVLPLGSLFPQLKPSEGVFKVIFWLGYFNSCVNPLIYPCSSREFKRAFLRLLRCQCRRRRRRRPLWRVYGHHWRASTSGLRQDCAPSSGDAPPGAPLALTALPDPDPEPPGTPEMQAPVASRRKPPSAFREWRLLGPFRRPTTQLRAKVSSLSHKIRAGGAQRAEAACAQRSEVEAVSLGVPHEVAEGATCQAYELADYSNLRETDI
Nature of the assay: Displacement of [125I]BE2254 from human cloned adrenergic alpha 1D receptor expressed in HEK293 cells. As to conditions: for Log Ki: hek293. Format: cell-based.

Assay [5] addresses T5, Alpha-1A adrenergic receptor (Rattus norvegicus) (UniProt P43140).
T5 sequence (whole entry): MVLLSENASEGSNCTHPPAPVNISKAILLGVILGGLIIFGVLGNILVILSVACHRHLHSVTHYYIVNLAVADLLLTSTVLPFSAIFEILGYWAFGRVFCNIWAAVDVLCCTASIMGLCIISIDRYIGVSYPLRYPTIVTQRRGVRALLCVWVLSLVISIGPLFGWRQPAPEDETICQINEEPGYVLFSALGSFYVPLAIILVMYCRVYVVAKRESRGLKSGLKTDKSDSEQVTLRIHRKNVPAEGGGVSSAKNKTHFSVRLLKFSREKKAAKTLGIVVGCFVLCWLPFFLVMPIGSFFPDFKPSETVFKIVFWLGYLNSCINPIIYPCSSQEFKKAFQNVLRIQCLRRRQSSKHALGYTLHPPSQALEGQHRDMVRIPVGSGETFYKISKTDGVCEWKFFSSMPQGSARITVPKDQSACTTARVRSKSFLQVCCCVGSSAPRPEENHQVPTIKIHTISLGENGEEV
The assay can be described thus: Antagonist activity at adrenergic alpha 1A receptor in rat prostatic vas deferens. Format: functional, tissue-based.

Assay [6] deals with T6, Alpha-1B adrenergic receptor (Homo sapiens, UniProt P35368).
T6 sequence (P35368 whole entry): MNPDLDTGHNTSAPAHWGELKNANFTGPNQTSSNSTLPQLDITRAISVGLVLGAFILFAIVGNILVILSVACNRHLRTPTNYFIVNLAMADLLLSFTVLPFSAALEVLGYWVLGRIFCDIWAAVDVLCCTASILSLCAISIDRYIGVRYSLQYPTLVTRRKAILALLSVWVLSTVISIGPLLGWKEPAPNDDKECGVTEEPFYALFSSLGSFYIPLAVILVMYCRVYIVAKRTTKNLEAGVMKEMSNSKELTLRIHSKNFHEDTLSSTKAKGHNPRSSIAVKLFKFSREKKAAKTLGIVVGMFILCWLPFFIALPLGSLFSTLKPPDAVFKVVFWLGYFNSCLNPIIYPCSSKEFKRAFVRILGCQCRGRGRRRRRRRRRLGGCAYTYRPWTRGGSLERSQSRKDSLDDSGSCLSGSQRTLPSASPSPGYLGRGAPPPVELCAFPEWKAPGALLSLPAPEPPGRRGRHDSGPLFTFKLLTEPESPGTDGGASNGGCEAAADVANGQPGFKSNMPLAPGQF
Nature of the assay: Displacement of [125I]BE2254 from human cloned adrenergic alpha 1B receptor expressed in HEK293 cells. Format: cell-based.

The source of these data is ChEMBL document CHEMBL1146173, “New pyrimido[5,4-b]indoles and [1]benzothieno[3,2-d]pyrimidines: high affinity ligands for the alpha(1)-adrenoceptor subtypes” (Bioorg Med Chem Lett, 2006).

Structures are written as SMILES.

As a reminder, the pKb is the negative decadic logarithm of the Kb, by convention in mol/L. Take `COc1ccccc1N1CCN(CCn2c(C)nc3c4ccccc4nc-3c2O)CC1`: the negative-log Kb (pKb) in assay [1] came out at 9.73; in assay [3], 9.24; in assay [5], 8.53. Also, the “Log Ki” value in assay [2] (hek293) is reported as -8.52; in assay [4], -9.39.

In general, Ki refers to a dissociation constant, usually derived from enzyme kinetics or from competition with a known ligand. High values mean a looser hold on the target, low ones a stronger hold on the target. With `COc1ccc(Cl)cc1N1CCN(CCn2c(=O)[nH]c3c(sc4ccccc43)c2=O)CC1`, the Ki in assay [6] was 91.2 nM; in assay [2] it was 53.7 nM; in assay [4], 13.5 nM.

For `COc1ccccc1N1CCN(CCn2c(=O)[nH]c3c(sc4ccccc43)c2=O)CC1`, the inhibition constant (Ki) is 8.91 nM in assay [6], 3.31 nM in assay [2] and 1.26 nM in assay [4]. The results for the pKb in assay [1], in assay [3] and in assay [5] were 8.44, 8.89 and 8.61, respectively.

As to `COc1ccc(Cl)cc1N1CCN(CCn2c(C)nc3c(sc4ccccc43)c2=O)CC1`, the Ki in assay [6] is 17.4 nM; in assay [2] it was 3.47 nM; in assay [4], 0.832 nM. Also, the negative-log Kb (pKb) in assay [1] worked out at 8.91; in assay [3], 7.57; in assay [5] it was 7.52.

In the case of `COc1ccccc1N1CCN(CCn2c(=O)[nH]c3c([nH]c4ccccc43)c2=O)CC1`, the figures for the pKb in assay [1], in assay [3] and in assay [5] were 8.67, 8.71 and 8.46, respectively. This compound had an inhibition constant Ki in assay [2] of 0.288 nM. In addition, the “Log Ki” value in assay [4] was -9.44.

`COc1ccc(Cl)cc1N1CCN(CCn2c(C)nc3c([nH]c4ccccc43)c2=O)CC1`: the Ki was 4.47 nM in assay [6], 1.32 nM in assay [2] and 0.166 nM in assay [4]. Further, the results for the pKb in assay [1], in assay [3] and in assay [5] were 8.68, 8.39 and 7.6, respectively.

Regarding `COc1ccccc1N1CCN(CCn2c(C)nc3c(sc4ccccc43)c2=O)CC1`, the results for the Ki in assay [6], in assay [2] and in assay [4] were 17.4 nM, 1.48 nM and 0.398 nM, respectively. The pKb in assay [1] worked out at 7.63; in assay [3] it was 8.98; in assay [5] it was 8.65.

In the case of `Cn1c(=O)n(CCN2CCN(c3ccc(Cl)c(Cl)c3)CC2)c(=O)c2c1c1ccccc1n2C`, the Ki in assay [6] was 603 nM; in assay [2] it was 182 nM; in assay [4], 437 nM.

As to `Cc1nc2c([nH]c3ccccc32)c(=O)n1CCN1CCN(c2ccc(Cl)c(Cl)c2)CC1`, the inhibition constant Ki was 83.2 nM in assay [6], 30.2 nM in assay [2] and 7.41 nM in assay [4].

Regarding `O=c1[nH]c2c(sc3ccccc32)c(=O)n1CCN1CCN(c2ccc(Cl)c(Cl)c2)CC1`, the Ki is 19100 nM in assay [6], 4270 nM in assay [2] and 309 nM in assay [4].

Turning to `COc1ccc(Cl)cc1N1CCN(CCn2c(=O)[nH]c3c([nH]c4ccccc43)c2=O)CC1`, the Ki in assay [6] is 10.7 nM; in assay [2], 8.32 nM; in assay [4] it was 1.55 nM.
